{"source": "ChEMBL document CHEMBL5614394", "about": "“Novel pleuromutilin derivatives conjugated with phenyl-sulfide and boron-containing moieties as potent antibacterial agents against antibiotic-resistant bacteria” (Eur J Med Chem, 2024)"}
{"test_system": "Staphylococcus epidermidis", "assay": "Antibacterial activity against Staphylococcus epidermidis ATCC 12228 assessed as inhibition of visible growth of bacteria incubated for 24 hrs by CLSI protocol based broth-dilution method", "type": "functional", "units": {"MIC": "µg/mL"}}
{"molecule": "C=C[C@]1(C)C[C@@H](OC(=O)CSC(C)(C)CNC(=O)c2ccc3c(c2)B(O)OC3)[C@]2(C)[C@H](C)CC[C@]3(CCC(=O)[C@H]32)[C@@H](C)[C@@H]1O", "MIC": 0.063}
{"test_system": "Staphylococcus simulans", "assay": "Antibacterial activity against pleuromutilin-resistant Staphylococcus simulans isolate 55-1 harboring cfr+ genotype assessed as inhibition of visible growth of bacteria incubated for 24 hrs by CLSI protocol based broth-dilution method", "type": "functional", "units": {"MIC": "µg/mL"}}
{"molecule": "C=C[C@]1(C)C[C@@H](OC(=O)CSC(C)(C)CNC(=O)c2ccc3c(c2)B(O)OC3)[C@]2(C)[C@H](C)CC[C@]3(CCC(=O)[C@H]32)[C@@H](C)[C@@H]1O", "MIC": 2}
{"test_system": "Staphylococcus aureus", "assay": "Antibacterial activity against Staphylococcus aureus ATCC 29213 assessed as inhibition of visible growth of bacteria incubated for 24 hrs by CLSI protocol based broth-dilution method", "type": "functional", "units": {"MIC": "µg/mL"}}
{"molecule": "C=C[C@]1(C)C[C@@H](OC(=O)CSC(C)(C)CNC(=O)c2ccc3c(c2)B(O)OC3)[C@]2(C)[C@H](C)CC[C@]3(CCC(=O)[C@H]32)[C@@H](C)[C@@H]1O", "MIC": 0.063}
{"test_system": "Staphylococcus aureus", "assay": "Antibacterial activity against methicillin-resistant Staphylococcus aureus J1 harboring (lsa(E)+) genotype assessed as inhibition of visible growth of bacteria incubated for 24 hrs by CLSI protocol based broth-dilution method", "type": "functional", "units": {"MIC": "µg/mL"}}
{"molecule": "C=C[C@]1(C)C[C@@H](OC(=O)CSC(C)(C)CNC(=O)c2ccc3c(c2)B(O)OC3)[C@]2(C)[C@H](C)CC[C@]3(CCC(=O)[C@H]32)[C@@H](C)[C@@H]1O", "MIC": 16}
{"test_system": "Enterococcus faecium", "assay": "Antibacterial activity against pleuromutilin-resistant Enterococcus faecium 18SC29-2 harboring (lsa(E)-) genotype assessed as inhibition of visible growth of bacteria incubated for 24 hrs by CLSI protocol based broth-dilution method", "type": "functional", "units": {"MIC": "µg/mL"}}
{"molecule": "C=C[C@]1(C)C[C@@H](OC(=O)CSC(C)(C)CNC(=O)c2ccc3c(c2)B(O)OC3)[C@]2(C)[C@H](C)CC[C@]3(CCC(=O)[C@H]32)[C@@H](C)[C@@H]1O", "MIC": 0.125}
{"test_system": "Enterococcus faecium", "assay": "Antibacterial activity against pleuromutilin-resistant Enterococcus faecium 18FJZ1-1 harboring (lsa(E)+) genotype assessed as inhibition of visible growth of bacteria incubated for 24 hrs by CLSI protocol based broth-dilution method", "type": "functional", "units": {"MIC": "µg/mL"}}
{"molecule": "C=C[C@]1(C)C[C@@H](OC(=O)CSC(C)(C)CNC(=O)c2ccc3c(c2)B(O)OC3)[C@]2(C)[C@H](C)CC[C@]3(CCC(=O)[C@H]32)[C@@H](C)[C@@H]1O", "MIC": 8}
